From patent publication US11912677B1, “1,3-benzothiazol-2-yl-N'-[(3-phenylprop-2-enoyl)oxy]ethanimidamide as an anticancer and antimicrobial compound” (KING FAISAL UNIVERSITY, priority 2023, dated 2024)

Assays:
[1] = tested on: human osteosarcoma cells (MG-63); experiment: Assessment of cytotoxicity by SRB assay, MG-63 cells; format: cell-based; settings: 0.01 μM to 100 μM, 72 h
Protocol: (§1) The human prostate cancer cells (PC3) and human osteosarcoma cells (MG-63) were obtained from Nawah Scientific Inc. (Mokatam, Cairo, Egypt) and cultured in DMEM (Dulbecco's modified eagle's medium), Gibco, USA, supplemented with fetal bovine serum […] at a concentration of 10% and 100 U/mL of penicillin and streptomycin (PS). The Cells were incubated at 37° C. in a humidified environment that contained 5% CO2.
(§2) Cells were seeded in 96-well plates as aliquots of 100 μL cell suspension and incubated in a complete media for 24 h. Afterward, cells were treated with 1,3-benzothiazol-2-yl-N′-[(3-phenylprop-2-enoyl)oxy]ethanimidamide at diverse concentrations ranging from 0.01 μM to 100 μM for 72 h. Then, cells were fixed at 4° C. for one hour with 150 μL of 10% trichloroacetic acid (TCA). […] Then, 150 μL of Tris pH 10.5 (10 mM) was added, and the absorbance was measured at 540 nm using a BMG LABTECH®—FLUOstar Omega microplate reader (Ortenberg, Germany). Half maximal inhibitory concentrations (IC50) values were calculated for each experiment using GraphPad Prism 6 software. […] The inhibition was calculated using the following equation: Inhibition %=100−Average Viability
(§3) The anticancer activity of 1,3-benzothiazol-2-yl-N′-[(3-phenylprop-2-enoyl)oxy]ethanimidamide was assessed against highly aggressive androgen-independent metastatic human prostate cancer cells (PC3) and osteosarcoma (MG-63) cells.

[2] = tested on: human prostate cancer cells (PC3); experiment: Assessment of cytotoxicity by SRB assay, PC3 cells; format: cell-based; settings: 0.01 μM to 100 μM, 72 h
Protocol: as §1, §2, §3

- melting point: 157 to 159 °C
Compound: N/C(Cc1nc2ccccc2s1)=N\OC(=O)/C=C/c1ccccc1 [1,3-benzothiazol-2-yl-N′-[(3-phenylprop-2-enoyl)oxy]ethanimidamide]
- antiproliferative activity against osteosarcoma (MG-63) cells [1]: excellent antiproliferative activities
- antiproliferative activity against prostate cancer cells (PC3) [2]: excellent antiproliferative activities
